Assay results taken from article PMC10791743, “Selective CK1α degraders exert antiproliferative activity against a broad range of human cancer cell lines” (Nature Communications, 2024).
Where “and” joins values, the source holds several entries; their conditions need not be identical. Equal entries are not always repeated.

How the values were obtained:
[1] = tested on: panel of 9 human cancer cell lines (HD-MB03, MB004, MB002, MHH-CALL4, MOLM-13, TF-1, HEL, OCI-AML3, AML193); assay: Molecular glue library screening, CellTiter-Glo cell viability, 72 h; format: cell-based; details: CTG, dose-response
Protocol: We screened our molecular glue library (3630 compounds) against a panel of 9 pediatric cancer cell lines to identify molecules displaying cell-selective sensitivities. In addition to the four cell lines we previously described (MB002, MB004, HD-MB03, and MHHCALL-4)[27], we included five additional AML cell lines (MOLM-13, TF-1, HEL, OCI-AML3, and AML193) to cover a broader range of genetic diversity and cancer vulnerabilities. The library screening was performed in high throughput (384-well plates) by incubating the cells with compounds for 72 h and assessing cell viability via CellTiter-Glo (CTG) in a dose–response manner, as reported previously.
The primary screen was performed in 384-well format using the CellTiter Glo (CTG) luminescent cell viability assay (Promega) as previously described. 3630 compounds from the St. Jude proprietary molecular glue library were screened against 9 human cancer cell lines (HD-MB03, MB004, MB002, MHH-CALL4, MOLM-13, TF-1, HEL, OCI-AML3, AML193). Each cell line was cultured in the complete medium recommended by the vendor and seeded in Corning 8804 BC white 384-well assay plates at densities of 1000, 1000, 1500, 7500, 1250, 156, 625, 1250, 1250 cells per well for HD-MB03, MB004, MB002, MHH-CALL4, MOLM-13, TF-1, HEL, OCI-AML, AML193, respectively. After overnight incubation at 37 °C in a humidified 5% CO2 incubator, cells were treated with compounds in dose–response format using a Pintool on a Biomek FX^P Laboratory Automation Workstation (Beckman Coulter). After 72 h of incubation, cell proliferation was assessed using a CellTiter-Glo (CTG) luminescent cell viability assay (Promega) according to the manufacturer’s instructions. Luminescence signal was measured using an EnVision plate reader (PerkinElmer).

MOLM-13 cells = assay: MOLM-13 cell viability assay (CTG, 72 h); format: cell-based, human; set-up: key to Cell viability in MOLM-13 cells / cell viability, dose-response replicate values: % viability = 100 − % activity, normalized to controls; details: for cell viability, dose-response replicate values: MOLM-13 WT, listed as CC-220
Protocol: The primary screen was performed in 384-well format using the CellTiter Glo (CTG) luminescent cell viability assay (Promega) as previously described. […] After overnight incubation at 37 °C in a humidified 5% CO2 incubator, cells were treated with compounds in dose–response format using a Pintool on a Biomek FX^P Laboratory Automation Workstation (Beckman Coulter). […] Luminescence signal was measured using an EnVision plate reader (PerkinElmer). […]
number per well and incubated overnight at 37 °C in a humidified 5 % CO2 incubator. Compounds were transferred to the assay plate from a dose-response plate using a Labcyte Echo 650 Acoustic Liquid Handler (Beckman Coulter , USA). […]
using Promega’s CellTiter-Glo reagent according to the manufacturer’s recommendation.
Luminescence was measured on the Envision plate reader (PerkinElmer, USA). Raw luminescence relative light unit (RLU) values for each compound at each concentration were normalized to obtain % activity using the following equation (1): 100 × [(mean(negctrl) – compound)/(mean (negctrl) – mean (posctrl))]. The % activity was converted to % viability using the following equation (2):
(100 – % activity), and then pooled from replicate experiments prior to fitting. Here, negctrl and posctrl refer to the negative (DMSO) and positive controls (staurosporine) on each plate. Dose-response curves were fit to the Hill equation using the GraphPad Prism (version 10). […]

[2] = Pharmacokinetics in female CD1 mice; format: in vivo, mouse; details: female CD1 mice
Protocol: Three mice were housed in each cage. […] Temperature and humidity were recorded by an auto-controlled data logger system. All the animals were provided a laboratory rodent diet (Altromin, Germany). Reverse osmosis water treated with ultraviolet light was provided ad libitum. Total 27 mice (n = 9/group) were divided into three groups as Group 1, Group 2, and Group 3 with a sparse sampling design (3 mice/time points). […] The formulation vehicle for IV was 5% v/v NMP, 5% v/v Solutol HS-15 and 90% v/v Normal saline, and for PO & IP was 10%v/v NMP, 10%v/v Solutol HS-15. 50%v/v PEG-400 and 30%v/v HPβCD (20%w/v) in saline. […] Immediately after blood collection, plasma was harvested by centrifugation at 12,300×g, 10 min at 4 °C and samples were stored at −70 ± 10 °C until bioanalysis. Concentrations of SJ3149 in mouse plasma samples were determined by fit-for-purpose LC–MS/MS method. Non-Compartmental-Analysis tool of Phoenix WinNonlin® (Version 8.3) was used to assess the pharmacokinetic parameters. Peak plasma concentration (Cmax) and time for the peak plasma concentration (Tmax) were the observed values. The area under the concentration–time curve (AUClast) was calculated by the linear trapezoidal rule. The terminal elimination rate constant, ke was determined by regression analysis of the linear terminal portion of the log plasma concentration-time curve. Clearance was estimated as Dose/AUCinf and Vss as CL*MRT.

[3] = single intraperitoneal 50 mg/kg, 0.5 hr
[4] = single intraperitoneal 50 mg/kg, 1 hr
[5] = single intraperitoneal 50 mg/kg, 2 hr
[6] = single intraperitoneal 50 mg/kg, 6 hr
[7] = single intraperitoneal 50 mg/kg, 8 hr
[8] = single intraperitoneal 50 mg/kg, 24 hr

O=C1CCC(N2C(=O)c3ccc(NS(=O)(=O)c4ccccc4OC(F)(F)F)cc3C2=O)C(=O)N1 (stereo not shown) [SJ6986]
Cell viability across the panel of AL and MB cell lines [1]: cytotoxic to all cell lines in the panel

Cc1ccc(NC(=O)NCc2ccc3c(c2)CN(C2CCC(=O)NC2=O)C3=O)cc1Cl (stereo not shown) [CC-885]
Cell viability across the panel of AL and MB cell lines [1]: cytotoxic to all cell lines in the panel

O=C1CC[C@H](N2Cc3c(OCc4ccc(CN5CCOCC5)cc4)cccc3C2=O)C(=O)N1 [iberdomide, reference compound]
Effect on MOLM-13 cell viability (cytotoxicity) (MOLM-13 cells; CTG 72 h): very little effect | cell viability, dose-response replicate values (MOLM-13 cells; Concentration 0.00053416): 104.205 and 101.273 and 105.756 | cell viability, dose-response replicate values (MOLM-13 cells; Concentration 0.00160248): 116.013 and 103.828 and 106.347 | cell viability, dose-response replicate values (MOLM-13 cells; Concentration 0.00480744): 99.9393 and 109.095 and 93.7856 | cell viability, dose-response replicate values (MOLM-13 cells; Concentration 0.0144223): 103.939 and 96.4969 and 110.266 | cell viability, dose-response replicate values (MOLM-13 cells; Concentration 0.0432669): 111.735 and 98.8709 and 109.735 | cell viability, dose-response replicate values (MOLM-13 cells; Concentration 0.129801): 112.307 and 99.7991 and 100.005 | cell viability, dose-response replicate values (MOLM-13 cells; Concentration 0.389402): 95.4783 and 95.9453 and 89.9456 | cell viability, dose-response replicate values (MOLM-13 cells; Concentration 1.16821): 93.0089 and 93.9287 and 92.6782 | cell viability, dose-response replicate values (MOLM-13 cells; Concentration 3.50462): 93.5137 and 89.0055 and 86.6893 | cell viability, dose-response replicate values (MOLM-13 cells; Concentration 10.5139): 95.8132 and 82.1796 and 91.7179

O=C1CCC(N2Cc3cc(Nc4noc5ccccc45)ccc3C2=O)C(=O)N1 (stereo not shown) [SJ001043149]
Plasma Concentration, Mean [2, 3]: 4253.68 ng/mL | Plasma Concentration, individual animal [2, 3]: 2474.57 ng/mL and 2615.2 ng/mL and 7671.27 ng/mL | Plasma Concentration, Mean [2, 4]: 3788.89 ng/mL | Plasma Concentration, individual animal [2, 4]: 3408.76 ng/mL and 3558.82 ng/mL and 4399.09 ng/mL | Plasma Concentration, Mean [2, 5]: 3436.75 ng/mL | Plasma Concentration, individual animal [2, 5]: 3844.39 ng/mL and 3042 ng/mL and 3423.87 ng/mL | Plasma Concentration, individual animal ([2]; single intraperitoneal 50 mg/kg, 4 hr): 37.79e ng/mL and 613.87 ng/mL and 1233.77 ng/mL | Plasma Concentration, Mean ([2]; single intraperitoneal 50 mg/kg, 4 hr, average of two values): 22172 ng·h/mL | Plasma Concentration, Mean [2, 6]: 336.83 ng/mL | Plasma Concentration, individual animal [2, 6]: 224.92 ng/mL and 422.53 ng/mL and 363.03 ng/mL | Plasma Concentration, Mean [2, 7]: 626.18 ng/mL | Plasma Concentration, individual animal [2, 7]: 584.82 ng/mL and 376.02 ng/mL and 917.7 ng/mL | Plasma Concentration, individual animal ([2]; single intraperitoneal 50 mg/kg, 12 hr): 1.02e ng/mL and 119 ng/mL and 188.95 ng/mL | Plasma Concentration, Mean ([2]; single intraperitoneal 50 mg/kg, 12 hr, average of two values): 3695.5 ng·h/mL | Plasma Concentration, Mean [2, 8]: 14.86 ng/mL | Plasma Concentration, individual animal [2, 8]: 16.86 ng/mL and 11.98 ng/mL and 15.73 ng/mL | Plasma Concentration, Mean ([2]; single intravenous 3 mg/kg, 0.08 hr): 3540.18 ng/mL | Plasma Concentration, individual animal ([2]; single intravenous 3 mg/kg, 0.08 hr, 3 mg/kg): 3522.19 ng/mL and 3164.19 ng/mL and 3934.15 ng/mL | Plasma Concentration, Mean ([2]; single intravenous 3 mg/kg, 0.5 hr): 548.51 ng/mL | Plasma Concentration, individual animal ([2]; single intravenous 3 mg/kg, 0.5 hr, 3 mg/kg): 590.56 ng/mL and 721 ng/mL and 333.96 ng/mL | Plasma Concentration, individual animal ([2]; single intravenous 3 mg/kg, 1 hr, 3 mg/kg): 89.11 ng/mL and 82.85 ng/mL and 465.12e ng/mL | Plasma Concentration, Mean ([2]; single intravenous 3 mg/kg, 1 hr, average of two values): 2064 ng·h/mL | Plasma Concentration, Mean ([2]; single intravenous 3 mg/kg, 2 hr): 21.37 ng/mL | Plasma Concentration, individual animal ([2]; single intravenous 3 mg/kg, 2 hr, 3 mg/kg): 26.85 ng/mL and 22.73 ng/mL and 14.53 ng/mL | Plasma Concentration, Mean ([2]; single intravenous 3 mg/kg, 4 hr): 5.15 ng/mL | Plasma Concentration, individual animal ([2]; single intravenous 3 mg/kg, 4 hr, 3 mg/kg): 2.92 ng/mL and 9.75 ng/mL and 2.78 ng/mL | Plasma Concentration, individual animal ([2]; single intravenous 3 mg/kg, 8 hr, LLOQ 1.00 ng/mL, 3 mg/kg): BLQ and 2.43e ng/mL | Plasma Concentration, individual animal ([2]; single intravenous 3 mg/kg, 12 hr, LLOQ 1.00 ng/mL): BLQ | Plasma Concentration, individual animal ([2]; single intravenous 3 mg/kg, 24 hr, LLOQ 1.00 ng/mL): BLQ | Plasma Concentration, Mean ([2]; single oral 50 mg/kg, 0.5 hr): 1802.13 ng/mL | Plasma Concentration, individual animal ([2]; single oral 50 mg/kg, 0.5 hr, 50 mg/kg): 1597.22 ng/mL and 2494.42 ng/mL and 1314.74 ng/mL | Plasma Concentration, Mean ([2]; single oral 50 mg/kg, 1 hr): 635.82 ng/mL | Plasma Concentration, individual animal ([2]; single oral 50 mg/kg, 1 hr, 50 mg/kg): 300.99 ng/mL and 799.29 ng/mL and 807.18 ng/mL | Plasma Concentration, individual animal ([2]; single oral 50 mg/kg, 2 hr, 50 mg/kg): 207.45 ng/mL and 268.31 ng/mL and 77.73e ng/mL | Plasma Concentration, Mean ([2]; single oral 50 mg/kg, 2 hr, average of two values): 5709.1 ng·h/mL | Plasma Concentration, Mean ([2]; single oral 50 mg/kg, 4 hr): 35.43 ng/mL | Plasma Concentration, individual animal ([2]; single oral 50 mg/kg, 4 hr, 50 mg/kg): 57.72 ng/mL and 27.57 ng/mL and 21 ng/mL | Plasma Concentration, individual animal ([2]; single oral 50 mg/kg, 6 hr, 50 mg/kg): 5.43e ng/mL and 17.18 ng/mL and 23.01 ng/mL | Plasma Concentration, Mean ([2]; single oral 50 mg/kg, 6 hr, average of two values): 482.4 ng·h/mL | Plasma Concentration, individual animal ([2]; single oral 50 mg/kg, 8 hr, 50 mg/kg): 6.11 ng/mL and 16.97 ng/mL and 1.39e ng/mL | Plasma Concentration, Mean ([2]; single oral 50 mg/kg, 8 hr, average of two values): 277 ng·h/mL | Plasma Concentration, Mean ([2]; single oral 50 mg/kg, 12 hr): 3.98 ng/mL | Plasma Concentration, individual animal ([2]; single oral 50 mg/kg, 12 hr, 50 mg/kg): 3.44 ng/mL and 4.89 ng/mL and 3.6 ng/mL | Plasma Concentration, individual animal ([2]; single oral 50 mg/kg, 24 hr, LLOQ 1.00 ng/mL, 50 mg/kg): 2.03e ng/mL and BLQ

Nc1cccc2c1C(=O)N(C1CCC(=O)NC1=O)C2=O (stereo not shown) [pomalidomide]
Cell viability across the panel of AL and MB cell lines [1]: inactive
